Measurements published in patent US4794187A, “^35 S-labelled 1.4-dihydropyridines” (Bayer Aktiengesellschaft, priority 1986, dated 1988).

Tests used:
brain receptor = experiment: binding to the brain 1,4-dihydropyridine receptor (radioligand dissociation); conditions: 37° C.
skeletal muscle receptor = molecular target: T1, skeletal muscle receptor (Homo sapiens, UniProt Q13698); experiment: binding to the skeletal muscle 1,4-dihydropyridine receptor (radioligand dissociation); conditions: 37° C., read-out: dissociation rate constant (converted)
T1 construct: dissociation rate constant (at 37° C.) of 0.070±0.01 min^-1 on skeletal muscle; from tissue
T1 sequence (Q13698 whole entry): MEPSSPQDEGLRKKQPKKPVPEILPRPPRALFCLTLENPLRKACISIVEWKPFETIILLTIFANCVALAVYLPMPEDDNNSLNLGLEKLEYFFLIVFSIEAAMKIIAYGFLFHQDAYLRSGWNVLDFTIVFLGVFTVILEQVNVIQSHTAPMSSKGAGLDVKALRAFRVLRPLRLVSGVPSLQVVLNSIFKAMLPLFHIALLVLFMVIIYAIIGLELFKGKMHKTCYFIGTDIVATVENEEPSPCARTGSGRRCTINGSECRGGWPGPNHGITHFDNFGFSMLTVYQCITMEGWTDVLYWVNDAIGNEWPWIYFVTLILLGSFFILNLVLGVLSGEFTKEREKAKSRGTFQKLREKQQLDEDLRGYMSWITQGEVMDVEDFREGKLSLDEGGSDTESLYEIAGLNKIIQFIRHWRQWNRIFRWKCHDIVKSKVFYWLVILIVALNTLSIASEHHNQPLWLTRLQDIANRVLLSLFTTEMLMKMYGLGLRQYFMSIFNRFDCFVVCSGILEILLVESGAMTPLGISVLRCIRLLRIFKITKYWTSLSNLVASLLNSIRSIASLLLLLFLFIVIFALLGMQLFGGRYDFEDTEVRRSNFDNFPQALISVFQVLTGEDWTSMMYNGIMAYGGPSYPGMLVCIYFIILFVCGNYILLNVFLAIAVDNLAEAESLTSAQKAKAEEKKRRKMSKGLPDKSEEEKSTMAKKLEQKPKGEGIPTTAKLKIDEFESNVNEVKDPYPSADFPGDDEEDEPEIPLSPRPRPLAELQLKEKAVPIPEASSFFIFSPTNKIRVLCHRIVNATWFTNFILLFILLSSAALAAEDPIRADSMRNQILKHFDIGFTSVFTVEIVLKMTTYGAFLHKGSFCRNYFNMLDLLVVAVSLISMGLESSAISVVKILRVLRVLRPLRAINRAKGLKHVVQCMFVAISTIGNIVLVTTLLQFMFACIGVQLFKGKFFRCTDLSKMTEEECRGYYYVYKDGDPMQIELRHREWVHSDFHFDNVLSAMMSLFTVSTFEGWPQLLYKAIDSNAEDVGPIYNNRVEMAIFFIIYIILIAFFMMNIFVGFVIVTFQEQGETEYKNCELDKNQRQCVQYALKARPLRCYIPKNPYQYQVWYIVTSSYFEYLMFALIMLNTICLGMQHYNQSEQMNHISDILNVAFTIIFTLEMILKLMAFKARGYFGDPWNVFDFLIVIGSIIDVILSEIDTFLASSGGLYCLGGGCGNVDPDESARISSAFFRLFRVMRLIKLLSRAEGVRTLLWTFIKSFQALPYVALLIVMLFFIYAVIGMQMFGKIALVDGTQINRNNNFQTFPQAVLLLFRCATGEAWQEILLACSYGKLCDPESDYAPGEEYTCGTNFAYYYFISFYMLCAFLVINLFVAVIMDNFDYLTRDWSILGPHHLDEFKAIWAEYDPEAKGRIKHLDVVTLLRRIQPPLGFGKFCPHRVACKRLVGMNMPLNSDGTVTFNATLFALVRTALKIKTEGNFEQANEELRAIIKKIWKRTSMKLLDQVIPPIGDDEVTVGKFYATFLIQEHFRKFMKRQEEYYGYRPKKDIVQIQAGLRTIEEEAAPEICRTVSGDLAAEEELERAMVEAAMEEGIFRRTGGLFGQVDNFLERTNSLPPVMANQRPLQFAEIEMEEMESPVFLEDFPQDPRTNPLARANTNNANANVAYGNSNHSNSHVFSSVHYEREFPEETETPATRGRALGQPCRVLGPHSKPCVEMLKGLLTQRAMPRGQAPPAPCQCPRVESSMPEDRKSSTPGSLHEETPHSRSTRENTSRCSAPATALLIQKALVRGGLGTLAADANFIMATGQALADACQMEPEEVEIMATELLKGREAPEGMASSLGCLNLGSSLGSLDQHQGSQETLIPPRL
T1 sequence (P54289 25-957 partner limits assumed): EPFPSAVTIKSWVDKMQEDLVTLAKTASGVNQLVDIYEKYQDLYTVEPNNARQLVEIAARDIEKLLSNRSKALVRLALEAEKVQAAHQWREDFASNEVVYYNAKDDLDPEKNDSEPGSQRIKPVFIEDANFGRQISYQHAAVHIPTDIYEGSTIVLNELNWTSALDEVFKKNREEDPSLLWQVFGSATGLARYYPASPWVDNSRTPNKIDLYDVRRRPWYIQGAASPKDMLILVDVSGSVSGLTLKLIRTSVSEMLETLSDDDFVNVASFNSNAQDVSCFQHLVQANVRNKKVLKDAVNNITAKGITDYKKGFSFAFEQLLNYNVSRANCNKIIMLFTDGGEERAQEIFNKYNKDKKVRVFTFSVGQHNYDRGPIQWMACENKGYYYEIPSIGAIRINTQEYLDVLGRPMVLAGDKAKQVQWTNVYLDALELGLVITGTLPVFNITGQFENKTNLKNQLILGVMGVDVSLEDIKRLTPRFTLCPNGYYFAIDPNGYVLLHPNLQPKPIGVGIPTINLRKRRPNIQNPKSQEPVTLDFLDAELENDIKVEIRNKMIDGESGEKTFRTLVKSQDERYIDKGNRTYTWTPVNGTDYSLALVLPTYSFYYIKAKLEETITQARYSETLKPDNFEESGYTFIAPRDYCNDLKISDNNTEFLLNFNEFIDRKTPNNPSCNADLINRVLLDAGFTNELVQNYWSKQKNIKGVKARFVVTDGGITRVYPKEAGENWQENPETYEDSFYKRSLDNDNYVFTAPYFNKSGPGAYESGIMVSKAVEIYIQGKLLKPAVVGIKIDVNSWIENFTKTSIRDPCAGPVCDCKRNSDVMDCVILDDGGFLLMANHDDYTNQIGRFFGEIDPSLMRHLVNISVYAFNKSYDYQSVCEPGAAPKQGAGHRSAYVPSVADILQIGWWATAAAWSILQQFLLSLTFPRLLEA
T1 sequence (P54289 958-1103 partner limits assumed): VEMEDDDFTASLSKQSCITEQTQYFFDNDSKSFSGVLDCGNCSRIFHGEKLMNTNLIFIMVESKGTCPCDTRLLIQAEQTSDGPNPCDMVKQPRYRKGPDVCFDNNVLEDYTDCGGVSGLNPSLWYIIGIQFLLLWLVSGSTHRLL
T1 sequence (Q02641 whole entry partner): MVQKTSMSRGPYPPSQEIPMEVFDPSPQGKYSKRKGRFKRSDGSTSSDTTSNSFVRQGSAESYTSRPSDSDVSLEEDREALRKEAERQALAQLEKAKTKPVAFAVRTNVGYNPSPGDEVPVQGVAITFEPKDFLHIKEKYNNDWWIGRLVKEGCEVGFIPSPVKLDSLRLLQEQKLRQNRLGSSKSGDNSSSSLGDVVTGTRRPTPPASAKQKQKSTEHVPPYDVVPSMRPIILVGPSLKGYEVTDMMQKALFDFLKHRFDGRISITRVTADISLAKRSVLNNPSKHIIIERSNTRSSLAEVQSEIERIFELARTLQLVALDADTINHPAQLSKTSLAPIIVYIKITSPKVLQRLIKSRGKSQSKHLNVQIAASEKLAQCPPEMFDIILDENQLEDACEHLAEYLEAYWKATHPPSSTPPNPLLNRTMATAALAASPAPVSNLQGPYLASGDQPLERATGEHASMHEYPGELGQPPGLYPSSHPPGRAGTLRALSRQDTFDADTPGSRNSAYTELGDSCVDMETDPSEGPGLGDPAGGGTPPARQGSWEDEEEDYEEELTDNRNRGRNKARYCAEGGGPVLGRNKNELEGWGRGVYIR
T1 sequence (Q06432 whole entry partner): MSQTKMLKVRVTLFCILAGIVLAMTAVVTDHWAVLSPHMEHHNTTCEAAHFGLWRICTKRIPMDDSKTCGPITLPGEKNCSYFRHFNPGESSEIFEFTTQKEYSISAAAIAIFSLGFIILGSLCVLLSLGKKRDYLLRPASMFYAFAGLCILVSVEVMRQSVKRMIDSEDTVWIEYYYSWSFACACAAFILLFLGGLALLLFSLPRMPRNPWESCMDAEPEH

dissociation rate constant (brain receptor): 0.02 min⁻¹ | koff (skeletal muscle receptor): 0.00117 s⁻¹
SMILES: CCOC(=O)C1=C(C)NC(C)=C(C(=O)OCCNC(=O)[C@H](CC[35S]C)NC(=O)OC(C)(C)C)C1c1ccccc1C(F)(F)F (some centres unmarked) [Example 1]
